Results published in PubChem BioAssay (NCI).
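Growth conditions: 96-well plates. Treatment: test compound, 48 hours, 5 concentrations. Analysis: linear interpolation between bracketing concentrations; unreached endpoints set to highest concentration. Abbreviation: GI50, concentration required for 50% inhibition of growth. Definition used: TGI = concentration required for complete inhibition of growth.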

Tests used:
Experiment in all cases: NCI anticancer screen, dose series, 48 h
[1] = test system: HCC-2998 colon
[2] = test system: HCT-116 colon
[3] = test system: HS 578T breast
[4] = test system: MDA-MB-231 breast
[5] = test system: PC-3 prostate
[6] = test system: SF-295 CNS
[7] = test system: SNB-19 CNS
[8] = test system: UO-31 renal
[9] = test system: RXF 393 renal
[10] = test system: SR leukemia

O=C(/C=C/c1c[nH]c2ccccc12)c1ccccc1O
TGI [1]: 27.1 µM
TGI [2]: 26 µM
TGI [3]: 66.7 µM
TGI [4]: 18.4 µM
TGI [5]: 18.7 µM
TGI [6]: 22.3 µM
TGI [7]: 36.7 µM
TGI [8]: 17.6 µM

CC1(C)OC2OC(/C=C/[N+](=O)[O-])C3OC(C)(C)OC3C2O1 (stereo unspecified)
TGI [1]: 31.1 µM
TGI [2]: 23 µM
TGI [9]: 5.99 µM
TGI [6]: 36 µM
TGI [7]: 33.5 µM
TGI [10]: 33.6 µM
TGI [8]: 34.8 µM

C=C1C(=O)O[C@H]2[C@H]1CC/C(COC(=O)NCc1ccc(Cn3c(=O)sn(CCCI)c3=O)cc1)=C\CC[C@@]1(C)O[C@@H]21
GI50 [1]: 1.96 µM
TGI [1]: 3.71 µM
GI50 [2]: 1.05 µM
TGI [2]: 2.57 µM
GI50 [3]: 3.17 µM
TGI [3]: 14.5 µM
GI50 [4]: 1.75 µM
TGI [4]: 3.56 µM
GI50 [5]: 1.94 µM
TGI [5]: 4.4 µM
GI50 [9]: 1.52 µM
TGI [9]: 2.95 µM
GI50 [6]: 14.4 µM
TGI [6]: 30.8 µM
GI50 [7]: 3.12 µM
TGI [7]: 13.8 µM
GI50 [8]: 1.52 µM
TGI [8]: 2.94 µM

O=C(NC(=Nc1ccccc1)SCCSC(=Nc1ccccc1)NC(=O)c1ccccc1)c1ccccc1
TGI [1]: > 100 µM
TGI [2]: > 100 µM
TGI [9]: 95.6 µM
TGI [6]: > 100 µM
TGI [7]: > 100 µM
TGI [8]: 88.2 µM

COc1cc(CC2c3cc(OC)c(OC)cc3CCN2C)c(C(=O)O)cc1OC (stereo unspecified)
TGI [1]: > 100 µM
TGI [2]: > 100 µM
TGI [9]: > 100 µM
TGI [6]: > 100 µM
TGI [7]: > 100 µM
TGI [10]: > 100 µM
TGI [8]: > 100 µM

CCC[CH2][Sn]1([CH2]CCC)[O]C(=O)c2cccnc2[S]1
GI50 [1]: 2.39 µM
TGI [1]: 6.15 µM
GI50 [2]: 5.56 µM
TGI [2]: 17.9 µM
GI50 [9]: 1.66 µM
TGI [9]: 3.2 µM
GI50 [6]: 3.19 µM
TGI [6]: 12 µM
GI50 [7]: 6.88 µM
TGI [7]: 19.5 µM
GI50 [10]: 1.4 µM
TGI [10]: 5.65 µM
GI50 [8]: 8.59 µM
TGI [8]: 20.9 µM

CC[C@H]1CNC(=O)CC1CC(=O)OC (stereo partly specified)
TGI [1]: > 100 µM
TGI [2]: > 100 µM
TGI [9]: > 100 µM
TGI [6]: > 100 µM
TGI [7]: > 100 µM
TGI [10]: > 100 µM
TGI [8]: > 100 µM

CN(C)CCCn1c2c(c3ccc(N4CCNCC4)cc3c1=O)C(=O)c1ccccc1-2
GI50 [1]: 0.352 µM
TGI [1]: 1.71 µM
GI50 [3]: 1.44 µM
TGI [3]: 4.38 µM
GI50 [4]: 0.505 µM
TGI [4]: 2.05 µM
GI50 [5]: 0.863 µM
TGI [5]: 3.79 µM
GI50 [9]: 1.29 µM
TGI [9]: 2.9 µM
GI50 [6]: 1.16 µM
TGI [6]: 3.36 µM
GI50 [7]: 0.541 µM
TGI [7]: 3.23 µM
GI50 [10]: 0.307 µM
TGI [10]: 1.69 µM
GI50 [8]: 0.765 µM
TGI [8]: 2.56 µM

CC1SC(c2ccc(OCc3ccccc3)cc2)N(NC(=O)C(O)(c2ccccc2)c2ccccc2)C1=O (stereo unspecified)
GI50 [1]: 1.92 µM
TGI [1]: 4.99 µM
GI50 [2]: 1.76 µM
TGI [2]: 4.71 µM
GI50 [3]: 1.94 µM
TGI [3]: 7.15 µM
GI50 [4]: 4.31 µM
TGI [4]: 15.5 µM
GI50 [5]: 2.08 µM
TGI [5]: 6.85 µM
GI50 [6]: 1.78 µM
TGI [6]: 4.53 µM
GI50 [7]: 5 µM
TGI [7]: 21.5 µM
GI50 [8]: 3.74 µM
TGI [8]: 21.3 µM

N#CC1(C2CC(=O)N(c3ccccc3)C2=O)CCCCC1=O (stereo unspecified)
TGI [1]: > 100 µM
TGI [9]: > 100 µM
TGI [6]: > 100 µM
TGI [7]: > 100 µM
TGI [10]: > 100 µM
TGI [8]: > 100 µM

C/C(=N\NC(N)=S)c1ccc(Oc2ccccc2)cc1
TGI [1]: 28.7 µM
TGI [2]: 22.6 µM
TGI [9]: 26.2 µM
TGI [6]: 38.4 µM
TGI [7]: 84.5 µM

C=CC(C)(C)[C@@]12CC3C(=O)N[C@@H](Cc4ccccc4)C(=O)N3[C@@H]1N(C(C)=O)c1ccccc12 (stereo partly specified)
TGI [2]: > 100 µM
TGI [6]: > 100 µM
TGI [7]: > 100 µM
TGI [10]: > 100 µM
TGI [8]: > 100 µM

O=C(CC1(O)C(=O)Nc2ccc(Br)cc21)c1cccc([N+](=O)[O-])c1 (stereo unspecified)
TGI [1]: > 100 µM
TGI [9]: 83.8 µM
TGI [6]: > 100 µM
TGI [7]: > 100 µM
TGI [8]: > 100 µM

C/C(=N\NC(N)=O)C(CN1CCOCC1)C(c1ccccc1)c1c(O)c2ccccc2oc1=O (stereo unspecified)
TGI [1]: > 100 µM
TGI [2]: > 100 µM
TGI [3]: > 100 µM
TGI [4]: > 100 µM
TGI [5]: > 100 µM
TGI [7]: > 100 µM
TGI [10]: > 100 µM
TGI [8]: > 100 µM

CCCCP1(=O)C=CC(Cl)=C(C)C1 (stereo unspecified)
TGI [1]: > 100 µM
TGI [2]: > 100 µM
TGI [9]: > 100 µM
TGI [6]: > 100 µM
TGI [8]: > 100 µM

N#Cc1cccc(C2SCc3nc4ccccc4n32)c1 (stereo unspecified)
TGI [9]: > 100 µM
TGI [6]: > 100 µM
TGI [7]: > 100 µM
TGI [10]: > 100 µM
TGI [8]: > 100 µM

CCn1c(O)c(C(=O)Nc2cccs2)c(=O)n(CC)c1=S
TGI [2]: 37.3 µM
TGI [6]: 35.6 µM
TGI [7]: 48 µM
TGI [10]: > 100 µM

O=C(Nc1cc(Cl)ccc1Cl)c1cc2ccccc2oc1=O
TGI [2]: > 100 µM
TGI [9]: > 100 µM
TGI [6]: > 100 µM

O=C1C(=C2C(=O)c3ccccc3[N+]2=O)N([O-])c2ccccc21
TGI [9]: 90.6 µM
TGI [6]: > 100 µM
TGI [7]: > 100 µM
TGI [10]: 79.4 µM
TGI [8]: > 100 µM

CC1CC(=O)C(CC(=O)O)[C@H]1C(C(=O)C(=O)Nc1cc(Cl)ccc1Cl)[N+](=O)[O-] (stereo partly specified)
TGI [1]: > 100 µM
TGI [9]: > 100 µM
TGI [6]: > 100 µM
TGI [7]: > 100 µM
TGI [10]: > 100 µM
TGI [8]: > 100 µM

COc1ccc(Cc2c3cc(OC)c(OC)cc3cc[n+]2C)cc1
TGI [1]: > 32.8 µM
TGI [2]: > 24.8 µM
TGI [9]: > 42 µM
TGI [6]: > 24.7 µM
TGI [7]: > 31.4 µM
TGI [10]: > 100 µM
TGI [8]: > 51.4 µM

CCCCc1c2c([n+]([O-])c3c1CCCC3)CCCC2
TGI [1]: > 100 µM
TGI [2]: > 100 µM
TGI [6]: > 100 µM
TGI [7]: > 100 µM
TGI [10]: > 100 µM
TGI [8]: > 100 µM

Cc1cc(C)c(CNC(=O)c2cc(Cl)c3c(c2C)O[C@@](C)(C2CCC(N(C)C)CC2)O3)c(=O)[nH]1 (stereo partly specified)
GI50 [1]: > 100 µM
TGI [1]: > 100 µM
GI50 [2]: 40.3 µM
TGI [2]: > 100 µM
GI50 [3]: 32.5 µM
TGI [3]: > 100 µM
GI50 [4]: 59.5 µM
TGI [4]: > 100 µM
GI50 [5]: 69.7 µM
TGI [5]: > 100 µM
GI50 [9]: 15.9 µM
TGI [9]: 71.5 µM
GI50 [6]: > 100 µM
TGI [6]: > 100 µM
GI50 [7]: > 100 µM
TGI [7]: > 100 µM
GI50 [8]: 45.6 µM
TGI [8]: > 100 µM

Cc1cc(Br)ccc1N=NC1C(=O)ON=C1c1ccccc1 (stereo unspecified)
TGI [1]: 76.4 µM
TGI [2]: > 100 µM
TGI [9]: > 100 µM
TGI [6]: > 100 µM
TGI [7]: > 100 µM
TGI [10]: > 100 µM
TGI [8]: > 100 µM
